Experimental data from ChEMBL document CHEMBL5113398, “Design and synthesis of new quinoline derivatives as selective C-RAF kinase inhibitors with potent anticancer activity” (Eur J Med Chem, 2022).

Columns and labels:
CCRF-CEM = assay: Anticancer activity against human CCRF-CEM cells assessed as cell growth inhibition incubated for 48 hrs by SRB assay; assay type: functional
HL-60 [1] = assay: Anticancer activity against human HL-60 cells assessed as cell growth inhibition incubated for 48 hrs by SRB assay; assay type: functional
K562 = assay: Anticancer activity against human K562 cells assessed as cell growth inhibition incubated for 48 hrs by SRB assay; assay type: functional
RPMI-8226 = assay: Anticancer activity against human RPMI-8226 cells assessed as cell growth inhibition incubated for 48 hrs by SRB assay; assay type: functional
A549 = assay: Anticancer activity against human A549 cells assessed as cell growth inhibition incubated for 48 hrs by SRB assay; assay type: functional
HOP-62 = assay: Anticancer activity against human HOP-62 cells assessed as cell growth inhibition incubated for 48 hrs by SRB assay; assay type: functional
HOP-92 = assay: Anticancer activity against human HOP-92 cells assessed as cell growth inhibition incubated for 48 hrs by SRB assay; assay type: functional
HCT-116 [2] = assay: Anticancer activity against human HCT-116 cells assessed as cell growth inhibition incubated for 48 hrs by SRB assay; assay type: functional
KM12 [3] = assay: Anticancer activity against human KM12 cells assessed as cell growth inhibition incubated for 48 hrs by SRB assay; assay type: functional
SF-295 = assay: Anticancer activity against human SF-295 cells assessed as cell growth inhibition incubated for 48 hrs by SRB assay; assay type: functional
SF-539 = assay: Anticancer activity against human SF-539 cells assessed as cell growth inhibition incubated for 48 hrs by SRB assay; assay type: functional
SK-MEL-2 [4] = assay: Anticancer activity against human SK-MEL-2 cells assessed as cell growth inhibition incubated for 48 hrs by SRB assay; assay type: functional
SK-MEL-28 = assay: Anticancer activity against human SK-MEL-28 cells assessed as cell growth inhibition incubated for 48 hrs by SRB assay; assay type: functional
SK-MEL-5 = assay: Anticancer activity against human SK-MEL-5 cells assessed as cell growth inhibition incubated for 48 hrs by SRB assay; assay type: functional
UACC-257 = assay: Anticancer activity against human UACC-257 cells assessed as cell growth inhibition incubated for 48 hrs by SRB assay; assay type: functional
UACC-62 = assay: Anticancer activity against human UACC-62 cells assessed as cell growth inhibition incubated for 48 hrs by SRB assay; assay type: functional
IGROV-1 [5] = assay: Anticancer activity against human IGROV-1 cells assessed as cell growth inhibition incubated for 48 hrs by SRB assay; assay type: functional
SK-OV-3 [6] = assay: Anticancer activity against human SK-OV-3 cells assessed as cell growth inhibition incubated for 48 hrs by SRB assay; assay type: functional
UO-31 [7] = assay: Anticancer activity against human UO-31 cells assessed as cell growth inhibition incubated for 48 hrs by SRB assay; assay type: functional
Hs-578T [8] = assay: Anticancer activity against human Hs-578T cells assessed as cell growth inhibition incubated for 48 hrs by SRB assay; assay type: functional
T47D [9] = assay: Anticancer activity against human T47D cells assessed as cell growth inhibition incubated for 48 hrs by SRB assay; assay type: functional
MDA-MB-468 = assay: Anticancer activity against human MDA-MB-468 cells assessed as cell growth inhibition incubated for 48 hrs by SRB assay; assay type: functional
HL-60 [10] = assay: Anticancer activity against human HL-60 cells assessed as total cell growth inhibition incubated for 48 hrs by SRB assay; assay type: functional
NCI-H522 = assay: Anticancer activity against human NCI-H522 cells assessed as total cell growth inhibition incubated for 48 hrs by SRB assay; assay type: functional
COLO 205 = assay: Anticancer activity against human COLO 205 cells assessed as total cell growth inhibition incubated for 48 hrs by SRB assay; assay type: functional
HCT-116 [11] = assay: Anticancer activity against human HCT-116 cells assessed as total cell growth inhibition incubated for 48 hrs by SRB assay; assay type: functional
HT-29 = assay: Anticancer activity against human HT-29 cells assessed as total cell growth inhibition incubated for 48 hrs by SRB assay; assay type: functional
KM12 [12] = assay: Anticancer activity against human KM12 cells assessed as total cell growth inhibition incubated for 48 hrs by SRB assay; assay type: functional
SW-620 = assay: Anticancer activity against human SW-620 cells assessed as total cell growth inhibition incubated for 48 hrs by SRB assay; assay type: functional
U-251 = assay: Anticancer activity against human U-251 cells assessed as total cell growth inhibition incubated for 48 hrs by SRB assay; assay type: functional
LOX IMVI = assay: Anticancer activity against human LOX IMVI cells assessed as total cell growth inhibition incubated for 48 hrs by SRB assay; assay type: functional
Malme-3M = assay: Anticancer activity against human Malme-3M cells assessed as total cell growth inhibition incubated for 48 hrs by SRB assay; assay type: functional
SK-MEL-2 [13] = assay: Anticancer activity against human SK-MEL-2 cells assessed as total cell growth inhibition incubated for 48 hrs by SRB assay; assay type: functional
IGROV-1 [14] = assay: Anticancer activity against human IGROV-1 cells assessed as total cell growth inhibition incubated for 48 hrs by SRB assay; assay type: functional
OVCAR-4 = assay: Anticancer activity against human OVCAR-4 cells assessed as total cell growth inhibition incubated for 48 hrs by SRB assay; assay type: functional
SK-OV-3 [15] = assay: Anticancer activity against human SK-OV-3 cells assessed as total cell growth inhibition incubated for 48 hrs by SRB assay; assay type: functional
UO-31 [16] = assay: Anticancer activity against human UO-31 cells assessed as total cell growth inhibition incubated for 48 hrs by SRB assay; assay type: functional
DU-145 = assay: Anticancer activity against human DU-145 cells assessed as total cell growth inhibition incubated for 48 hrs by SRB assay; assay type: functional
MDA-MB-231 = assay: Anticancer activity against human MDA-MB-231 cells assessed as total cell growth inhibition incubated for 48 hrs by SRB assay; assay type: functional
Hs-578T [17] = assay: Anticancer activity against human Hs-578T cells assessed as total cell growth inhibition incubated for 48 hrs by SRB assay; assay type: functional
T47D [18] = assay: Anticancer activity against human T47D cells assessed as total cell growth inhibition incubated for 48 hrs by SRB assay; assay type: functional
Homo sapiens = species on record: Homo sapiens; assay: Inhibition of ABL (unknown origin) at 1 uM in presence of ATP by hotspot kinase assay
[19] = target: Serine/threonine-protein kinase B-raf (Homo sapiens) (UniProt P15056); assay: Inhibition of wild type B-RAF (unknown origin) at 1 uM in presence of ATP by hotspot kinase assay
Serine/threonine-protein kinase B-raf (Homo sapiens), sequence (P15056 whole entry): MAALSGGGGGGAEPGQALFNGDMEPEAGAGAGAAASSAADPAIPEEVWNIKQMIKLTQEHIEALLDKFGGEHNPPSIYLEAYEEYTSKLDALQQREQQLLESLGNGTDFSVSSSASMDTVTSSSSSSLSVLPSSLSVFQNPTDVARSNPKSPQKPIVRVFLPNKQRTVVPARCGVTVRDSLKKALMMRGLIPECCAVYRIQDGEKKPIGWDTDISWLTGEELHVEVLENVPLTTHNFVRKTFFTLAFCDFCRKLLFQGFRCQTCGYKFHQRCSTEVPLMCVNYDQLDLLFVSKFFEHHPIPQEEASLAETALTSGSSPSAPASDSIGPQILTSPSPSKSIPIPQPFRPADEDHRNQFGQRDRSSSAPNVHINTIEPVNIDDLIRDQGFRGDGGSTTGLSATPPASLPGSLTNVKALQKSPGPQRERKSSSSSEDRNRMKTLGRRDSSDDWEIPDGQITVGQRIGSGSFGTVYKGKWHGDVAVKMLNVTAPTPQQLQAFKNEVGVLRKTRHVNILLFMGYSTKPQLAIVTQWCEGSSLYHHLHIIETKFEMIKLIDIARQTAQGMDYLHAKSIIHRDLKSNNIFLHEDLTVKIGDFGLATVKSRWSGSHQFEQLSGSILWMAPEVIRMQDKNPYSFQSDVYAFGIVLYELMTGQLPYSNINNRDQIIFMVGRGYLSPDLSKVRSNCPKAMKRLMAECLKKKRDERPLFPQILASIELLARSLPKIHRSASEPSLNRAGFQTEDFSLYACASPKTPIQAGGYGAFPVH

[20] = target: Receptor-type tyrosine-protein kinase FLT3 (Homo sapiens) (UniProt P36888); assay: Inhibition of FLT3 (unknown origin) at 1 uM in presence of ATP by hotspot kinase assay
Receptor-type tyrosine-protein kinase FLT3 (Homo sapiens), sequence (P36888 whole entry): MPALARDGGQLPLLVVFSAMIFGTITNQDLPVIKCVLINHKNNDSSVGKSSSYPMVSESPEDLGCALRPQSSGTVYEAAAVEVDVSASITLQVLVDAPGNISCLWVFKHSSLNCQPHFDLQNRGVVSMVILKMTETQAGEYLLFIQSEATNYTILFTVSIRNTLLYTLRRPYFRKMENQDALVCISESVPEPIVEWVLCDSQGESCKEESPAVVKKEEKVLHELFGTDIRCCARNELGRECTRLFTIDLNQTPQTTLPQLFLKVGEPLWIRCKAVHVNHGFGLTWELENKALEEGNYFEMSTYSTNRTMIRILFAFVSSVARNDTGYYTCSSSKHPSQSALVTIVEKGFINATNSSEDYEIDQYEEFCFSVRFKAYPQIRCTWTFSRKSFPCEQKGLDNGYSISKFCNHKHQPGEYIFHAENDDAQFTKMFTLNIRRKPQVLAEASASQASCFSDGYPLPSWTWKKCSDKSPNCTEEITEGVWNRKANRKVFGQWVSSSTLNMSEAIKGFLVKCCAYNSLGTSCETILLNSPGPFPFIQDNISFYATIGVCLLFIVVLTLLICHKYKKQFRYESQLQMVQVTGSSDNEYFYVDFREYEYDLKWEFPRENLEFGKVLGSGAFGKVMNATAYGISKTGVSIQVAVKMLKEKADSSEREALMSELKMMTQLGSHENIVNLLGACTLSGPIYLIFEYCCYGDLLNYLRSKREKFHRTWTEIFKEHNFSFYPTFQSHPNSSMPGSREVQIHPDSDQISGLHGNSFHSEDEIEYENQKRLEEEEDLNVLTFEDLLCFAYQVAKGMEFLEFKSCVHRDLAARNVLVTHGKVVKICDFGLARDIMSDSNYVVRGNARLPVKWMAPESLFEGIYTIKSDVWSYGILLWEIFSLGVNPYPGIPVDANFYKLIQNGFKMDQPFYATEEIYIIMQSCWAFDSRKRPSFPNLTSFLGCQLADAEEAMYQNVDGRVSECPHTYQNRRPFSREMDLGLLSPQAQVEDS

[21] = target: Dual specificity mitogen-activated protein kinase kinase 1 (Homo sapiens) (UniProt Q02750); assay: Inhibition of MEK1 (unknown origin) at 1 uM in presence of ATP by hotspot kinase assay
Dual specificity mitogen-activated protein kinase kinase 1 (Homo sapiens), sequence (Q02750 whole entry): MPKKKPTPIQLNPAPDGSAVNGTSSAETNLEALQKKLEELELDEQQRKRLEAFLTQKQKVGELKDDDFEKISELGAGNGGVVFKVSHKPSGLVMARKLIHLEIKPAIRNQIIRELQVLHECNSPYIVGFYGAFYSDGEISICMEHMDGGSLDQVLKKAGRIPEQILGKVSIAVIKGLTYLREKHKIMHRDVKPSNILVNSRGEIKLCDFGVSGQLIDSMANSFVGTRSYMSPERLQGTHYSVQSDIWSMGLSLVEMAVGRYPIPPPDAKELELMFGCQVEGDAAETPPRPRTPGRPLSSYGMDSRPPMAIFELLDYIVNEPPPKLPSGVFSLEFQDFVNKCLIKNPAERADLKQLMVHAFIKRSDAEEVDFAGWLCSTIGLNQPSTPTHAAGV

[22] = target: Dual specificity mitogen-activated protein kinase kinase 2 (Homo sapiens) (UniProt P36507); assay: Inhibition of MEK2 (unknown origin) at 1 uM in presence of ATP by hotspot kinase assay
Dual specificity mitogen-activated protein kinase kinase 2 (Homo sapiens), sequence (P36507 whole entry): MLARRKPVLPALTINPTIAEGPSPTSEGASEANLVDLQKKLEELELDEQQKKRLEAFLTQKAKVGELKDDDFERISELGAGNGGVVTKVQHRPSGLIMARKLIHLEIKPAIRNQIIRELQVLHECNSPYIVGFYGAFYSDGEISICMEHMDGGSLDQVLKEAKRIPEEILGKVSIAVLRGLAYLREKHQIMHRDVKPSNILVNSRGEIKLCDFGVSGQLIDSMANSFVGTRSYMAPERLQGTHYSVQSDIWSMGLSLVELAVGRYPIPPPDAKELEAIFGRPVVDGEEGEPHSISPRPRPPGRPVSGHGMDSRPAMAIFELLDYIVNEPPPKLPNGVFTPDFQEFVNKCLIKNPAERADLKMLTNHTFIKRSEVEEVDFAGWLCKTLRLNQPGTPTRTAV

[23] = system: Serine/threonine-protein kinase B-raf (Homo sapiens), P15056 [V600E]; assay: Inhibition of B-RAF V600E mutant (unknown origin) at 1 uM in presence of ATP by hotspot kinase assay
Serine/threonine-protein kinase B-raf (Homo sapiens), P15056 [V600E], sequence (P15056 whole entry V600E): as the sequence (P15056 whole entry) above, with V600E counted along it

Compound: COc1cc2cc(Oc3ccc(NC(=O)Nc4cc(C(F)(F)F)cc(C(F)(F)F)c4)cc3)c(C)nc2cc1OCCN1CCOCC1
- GI50 (CCRF-CEM): 1.41 µM
- GI50 (HL-60 [1]): 1.62 µM
- GI50 (K562): 1.41 µM
- GI50 (RPMI-8226): 0.84 µM
- GI50 (A549): 1.72 µM
- GI50 (HOP-62): 2.2 µM
- GI50 (HOP-92): 0.9 µM
- GI50 (HCT-116 [2]): 1.42 µM
- GI50 (KM12 [3]): 1.53 µM
- GI50 (SF-295): 1.14 µM
- GI50 (SF-539): 1.54 µM
- GI50 (SK-MEL-2 [4]): 1.74 µM
- GI50 (SK-MEL-28): 1.8 µM
- GI50 (SK-MEL-5): 0.89 µM
- GI50 (UACC-257): 1.4 µM
- GI50 (UACC-62): 1.67 µM
- GI50 (IGROV-1 [5]): 1.54 µM
- GI50 (SK-OV-3 [6]): 2.09 µM
- GI50 (UO-31 [7]): 1.01 µM
- GI50 (Hs-578T [8]): 1.56 µM
- GI50 (T47D [9]): 2.04 µM
- GI50 (MDA-MB-468): 1.22 µM
- TGI (HL-60 [10]): 4.93 µM
- TGI (NCI-H522): 7.29 µM
- TGI (COLO 205): 2.18 µM
- TGI (HCT-116 [11]): 5.33 µM
- TGI (HT-29): 7.14 µM
- TGI (KM12 [12]): 5.95 µM
- TGI (SW-620): 7.17 µM
- TGI (U-251): 2.85 µM
- TGI (LOX IMVI): 5.09 µM
- TGI (Malme-3M): 3.79 µM
- TGI (SK-MEL-2 [13]): 6.91 µM
- TGI (IGROV-1 [14]): 6.9 µM
- TGI (OVCAR-4): 6.95 µM
- TGI (SK-OV-3 [15]): 8.5 µM
- TGI (UO-31 [16]): 4.06 µM
- TGI (DU-145): 7.05 µM
- TGI (MDA-MB-231): 6.45 µM
- TGI (Hs-578T [17]): 7 µM
- TGI (T47D [18]): 10.2 µM
- inhibition (Homo sapiens): -2.3%
- inhibition [19]: 26.5%
- inhibition [20]: 20.5%
- inhibition [21]: 25.5%
- inhibition [22]: 16.4%
- inhibition [23]: 34.6%

Compound: COc1cc2cc(Oc3ccc(NC(=O)Nc4ccc(F)c(C(F)(F)F)c4)cc3)c(C)nc2cc1OCCN1CCOCC1
- GI50 (CCRF-CEM): 1.72 µM
- GI50 (HL-60 [1]): 2.38 µM
- GI50 (K562): 0.88 µM
- GI50 (RPMI-8226): 1.12 µM
- GI50 (A549): 2.57 µM
- GI50 (HOP-62): 3.99 µM
- GI50 (HOP-92): 1.31 µM
- GI50 (HCT-116 [2]): 1.11 µM
- GI50 (KM12 [3]): 2.69 µM
- GI50 (SF-295): 1.35 µM
- GI50 (SF-539): 1.77 µM
- GI50 (SK-MEL-2 [4]): 2.38 µM
- GI50 (SK-MEL-28): 1.62 µM
- GI50 (SK-MEL-5): 1.14 µM
- GI50 (UACC-257): 1.75 µM
- GI50 (UACC-62): 1.36 µM
- GI50 (IGROV-1 [5]): 2.69 µM
- GI50 (SK-OV-3 [6]): 3.76 µM
- GI50 (UO-31 [7]): 1.71 µM
- GI50 (Hs-578T [8]): 2.12 µM
- GI50 (T47D [9]): 1.91 µM
- GI50 (MDA-MB-468): 0.45 µM
- TGI (HL-60 [10]): 6.14 µM
- TGI (NCI-H522): 9.43 µM
- TGI (COLO 205): 4.28 µM
- TGI (HCT-116 [11]): 11.2 µM
- TGI (HT-29): 21.8 µM
- TGI (KM12 [12]): 10.6 µM
- TGI (SW-620): 9.86 µM
- TGI (U-251): 11.1 µM
- TGI (LOX IMVI): 2.86 µM
- TGI (Malme-3M): 3.24 µM
- TGI (SK-MEL-2 [13]): 7.58 µM
- TGI (IGROV-1 [14]): 19.5 µM
- TGI (OVCAR-4): 5.23 µM
- TGI (SK-OV-3 [15]): 26.7 µM
- TGI (UO-31 [16]): 10.6 µM
- TGI (DU-145): 15.2 µM
- TGI (MDA-MB-231): 9.02 µM
- TGI (Hs-578T [17]): 8.9 µM
- TGI (T47D [18]): 32.1 µM
- inhibition (Homo sapiens): -0.53%
- inhibition [19]: 23.7%
- inhibition [20]: 28.4%
- inhibition [21]: 13.1%
- inhibition [22]: 10.4%
- inhibition [23]: 24.8%
